A short description of this experiment: Nav1.5 Assay: To assess the potential cardiac liability of compounds at an early stage in the drug discovery process, a Nav1.5 sodium channel screening assay was be performed on Molecular Device's PatchXpress™ automated electrophysiology platform. Under voltage-clamp conditions, Nav1.5 currents were recorded from HEK cells expressing the human Nav1.5 channel in the absence and presence of increasing concentrations of the test compound to obtain an IC50 value. The external recording solution contained (in mM): 90 TEACl, 50 NaCl, 1.8 CaCl, 1 MgCl2, 10 HEPES, 10 glucose, adjusted to pH 7.4 with TEA-OH and to 300 mOsm with sucrose (if necessary), while the internal patch pipette solution contained (in mM): 129 CsF, 2 MgCl2, 11 EGTA, 10 HEPES, 3 Na2ATP adjusted to pH 7.2 with CsOH and to 290 mOsm with sucrose (if necessary). Nav1.5 channel currents were evoked using a cardiac action potential waveform at 1 Hz, digitized at 31.25 kHz and low-pass filtered at 12 kHz. The note with it: HEK293.

The structures appear in SMILES notation. Bounds are passed on as bounds.

Turning to `NCc1nc2cc(C(F)(F)F)cc(C(F)(F)F)c2[nH]1`, the IC50 is greater than 10 µM.

Turning to `O=C1CNCCN1Cc1nc2cc(C(F)(F)F)cc(C(F)(F)F)c2[nH]1`, the IC50 is greater than 10 µM.

On to `O=C1CNCCN1Cc1nc2cc(C(F)(F)F)c(C(F)(F)F)cc2[nH]1`, for which the IC50 was greater than 10 µM.

Take `NCC(=O)NCc1nc2cc(Cl)c(Cl)cc2[nH]1`: the IC50 is greater than 10 µM.

`NCCc1nc2cc(C(F)(F)F)cc(C(F)(F)F)c2[nH]1`: the IC50 was greater than 10 µM.

With `CNCc1nc2cc(C(F)(F)F)cc(C(F)(F)F)c2[nH]1`, the IC50 was greater than 10 µM.

Take `CC(C)(N)Cc1nc2cc(C(F)(F)F)cc(C(F)(F)F)c2[nH]1`: the IC50 came out at 3.6 µM.

As for `CC(C)C[C@H](CN)Cc1nc2c(C(F)(F)F)cc(C(F)(F)F)cc2[nH]1`, the IC50 was greater than 10 µM.

With `NCC(=O)NCc1nc2cc(C(F)(F)F)cc(C(F)(F)F)c2[nH]1`, the IC50 was greater than 10 µM.

`NCCCc1nc2cc(C(F)(F)F)cc(C(F)(F)F)c2[nH]1`: the IC50 came out at 7.5 µM.

As for `CC1(NC(=O)CN2CC(Cc3nc4c(C(F)(F)F)cc(C(F)(F)F)cc4[nH]3)C2)CCC1`, the IC50 is greater than 10 µM.

In the case of `CC(C)(N)C(=O)NCc1nc2cc(C(F)(F)F)cc(C(F)(F)F)c2[nH]1`, the IC50 is greater than 10 µM.

For the compound `FC(F)(F)c1cc(C(F)(F)F)c2nc(CC3CNC3)[nH]c2c1`, the IC50 was greater than 10 µM.

The IC50 is the concentration that gives 50% inhibition.
